Data from ChEMBL document CHEMBL5584237, “Design, synthesis, biological evaluation, and in silico studies of novel pyridopyridine derivatives as anticancer candidates targeting FMS kinase” (Eur J Med Chem, 2024).
pIC50: −log10 of the molar value. The source made the active and inactive calls. The rule behind the calls is not given here.

Assays:
HCT-116 = assay: Antiproliferative activity against human HCT-116 cells assessed as cell growth inhibition; assay type: functional
HT-29 = assay: Antiproliferative activity against human HT-29 cells assessed as cell growth inhibition; assay type: functional
SF-539 = assay: Antiproliferative activity against human SF-539 cells assessed as cell growth inhibition; assay type: functional
SNB-75 = assay: Antiproliferative activity against human SNB-75 cells assessed as cell growth inhibition; assay type: functional
SK-MEL-28 = assay: Antiproliferative activity against human SK-MEL-28 cells assessed as cell growth inhibition; assay type: functional
786-0 = assay: Antiproliferative activity against human 786-0 cells assessed as cell growth inhibition; assay type: functional
CAKI-1 = assay: Antiproliferative activity against human CAKI-1 cells assessed as cell growth inhibition; assay type: functional
PC-3 = assay: Antiproliferative activity against human PC-3 cells assessed as cell growth inhibition; assay type: functional
DU-145 = assay: Antiproliferative activity against human DU-145 cells assessed as cell growth inhibition; assay type: functional
Hs-578T = assay: Antiproliferative activity against human Hs-578T cells assessed as cell growth inhibition; assay type: functional
[1] = Cytotoxicity against human WI-38 cells assessed as reduction in cell growth measured after 48 hrs by MTT assay; assay type: toxicity, cell-based
[2] = Cytotoxicity against human HS27 cells assessed as reduction in cell growth measured after 48 hrs by MTT assay; assay type: toxicity, cell-based
[3] = Selectivity index, ratio of IC50 for human WI-38 cells to IC50 for human MOLT-4 cells
[4] = Selectivity index, ratio of IC50 for human WI-38 cells to IC50 for human NCI-H460 cells; assay type: toxicity; settings: WI-38 cells and NCI-H460 cells, read-out: Ratio IC50
[5] = Selectivity index, ratio of IC50 for human WI-38 cells to IC50 for human COLO 205 cells
[6] = Selectivity index, ratio of IC50 for human WI-38 cells to IC50 for human HCT-116 cells; assay type: toxicity; settings: WI-38 cells and HCT-116 cells, read-out: Ratio IC50
[7] = Selectivity index, ratio of IC50 for human WI-38 cells to IC50 for human SNB-75 cells
[8] = Selectivity index, ratio of IC50 for human WI-38 cells to IC50 for human Malme-3M cells
[9] = Selectivity index, ratio of IC50 for human WI-38 cells to IC50 for human M14 cells
[10] = Selectivity index, ratio of IC50 for human WI-38 cells to IC50 for human MDA-MB-435 cells
[11] = Selectivity index, ratio of IC50 for human WI-38 cells to IC50 for human RXF 393 cells
[12] = Selectivity index, ratio of IC50 for human WI-38 cells to IC50 for human PC-3 cells; assay type: toxicity; settings: WI-38 cells and PC-3 cells, read-out: Ratio IC50
[13] = Selectivity index, ratio of IC50 for human WI-38 cells to IC50 for human DU-145 cells
[14] = Selectivity index, ratio of IC50 for human WI-38 cells to IC50 for human Hs-578T cells
[15] = Selectivity index, ratio of IC50 for human WI-38 cells to IC50 for human MDA-MB-468 cells; assay type: toxicity; settings: WI-38 cells and MDA-MB-468 cells, read-out: Ratio IC50
[16] = Selectivity index, ratio of IC50 for human HS27 cells to IC50 for human CCRF-CEM cells
[17] = Selectivity index, ratio of IC50 for human HS27 cells to IC50 for human SR cells
[18] = Selectivity index, ratio of IC50 for human HS27 cells to IC50 for human A549 cells
[19] = Selectivity index, ratio of IC50 for human HS27 cells to IC50 for human HCT-15 cells
[20] = Selectivity index, ratio of IC50 for human HS27 cells to IC50 for human SW-620 cells
[21] = Selectivity index, ratio of IC50 for human HS27 cells to IC50 for human SF-295 cells
[22] = Selectivity index, ratio of IC50 for human HS27 cells to IC50 for human SF-539 cells
[23] = Selectivity index, ratio of IC50 for human HS27 cells to IC50 for human SNB-75 cells
[24] = Selectivity index, ratio of IC50 for human HS27 cells to IC50 for human LOX IMVI cells
[25] = Selectivity index, ratio of IC50 for human HS27 cells to IC50 for human M14 cells
[26] = Selectivity index, ratio of IC50 for human HS27 cells to IC50 for human OVCAR-4 cells
[27] = Selectivity index, ratio of IC50 for human HS27 cells to IC50 for human CAKI-1 cells
[28] = Selectivity index, ratio of IC50 for human HS27 cells to IC50 for human RXF 393 cells
[29] = Selectivity index, ratio of IC50 for human HS27 cells to IC50 for human SN12C cells
[30] = Selectivity index, ratio of IC50 for human HS27 cells to IC50 for human PC-3 cells
[31] = Selectivity index, ratio of IC50 for human HS27 cells to IC50 for human MCF7 cells
[32] = Selectivity index, ratio of IC50 for human HS27 cells to IC50 for human MDA-MB-231 cells
[33] = Selectivity index, ratio of IC50 for human HS27 cells to IC50 for human Hs-578T cells
Hep 3B2 [34] = assay: Induction of apoptosis in human Hep3B cells assessed as increase in cleaved PARP expression at 3.38 uM measured after 48 hrs by Western blot analysis relative to control; assay type: functional
Hep 3B2 [35] = assay: Cell cycle arrest in human Hep3B cells assessed as upregulation of cyclin B1 expression at 0.5 x IC50 to IC50 measured after 48 hrs by Western blot analysis; assay type: functional, cell-based
Hep 3B2 [36] = assay: Cell cycle arrest in human Hep3B cells assessed as downregulation of cyclin D1 expression at 0.5 x IC50 to IC50 measured after 48 hrs by Western blot analysis; assay type: functional, cell-based
[37] = target: Macrophage colony-stimulating factor 1 receptor (Homo sapiens, UniProt P07333); assay: Inhibition of FMS (unknown origin) using myelin basic protein as substrate measured after 40 mins in presence of [gamma-33P]-ATP by scintillation counting method; settings: read-out: IC50
Sequence of Macrophage colony-stimulating factor 1 receptor (P07333 whole entry): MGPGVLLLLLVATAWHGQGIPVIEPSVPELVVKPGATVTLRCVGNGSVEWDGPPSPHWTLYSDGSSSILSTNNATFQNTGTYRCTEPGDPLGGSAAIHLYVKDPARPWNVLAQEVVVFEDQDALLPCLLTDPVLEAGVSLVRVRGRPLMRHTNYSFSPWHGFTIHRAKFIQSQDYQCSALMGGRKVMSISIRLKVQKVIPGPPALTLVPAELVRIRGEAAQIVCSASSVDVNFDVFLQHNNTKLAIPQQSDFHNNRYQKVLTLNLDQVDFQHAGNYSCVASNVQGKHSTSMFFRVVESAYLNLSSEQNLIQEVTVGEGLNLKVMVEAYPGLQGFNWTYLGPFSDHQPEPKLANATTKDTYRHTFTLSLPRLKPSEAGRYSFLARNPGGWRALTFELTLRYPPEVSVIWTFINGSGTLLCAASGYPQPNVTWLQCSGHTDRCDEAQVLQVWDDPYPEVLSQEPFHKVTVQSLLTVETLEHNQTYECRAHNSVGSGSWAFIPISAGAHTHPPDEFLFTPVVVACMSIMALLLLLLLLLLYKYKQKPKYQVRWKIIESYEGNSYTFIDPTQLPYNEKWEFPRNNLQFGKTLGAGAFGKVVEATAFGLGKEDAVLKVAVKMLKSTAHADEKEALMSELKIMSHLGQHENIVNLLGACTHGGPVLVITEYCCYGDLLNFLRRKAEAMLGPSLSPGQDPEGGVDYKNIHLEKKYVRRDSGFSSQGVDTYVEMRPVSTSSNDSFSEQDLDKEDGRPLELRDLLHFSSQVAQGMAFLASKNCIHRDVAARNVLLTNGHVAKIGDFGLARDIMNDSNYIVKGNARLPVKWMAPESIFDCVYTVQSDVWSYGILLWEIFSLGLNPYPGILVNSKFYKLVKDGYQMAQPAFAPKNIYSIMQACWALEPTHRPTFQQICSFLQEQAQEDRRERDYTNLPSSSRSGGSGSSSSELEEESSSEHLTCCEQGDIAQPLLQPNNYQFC

in vitro = settings: human, WI-38 cells and A549 cells
Description: Selectivity index, ratio of IC50 for human WI-38 cells to IC50 for human A549 cells

CCN1CCN(c2ccc(NC(=O)Nc3ccc(-c4cc(C(=O)NC(C)C)c5ncccc5n4)cc3)cc2C(F)(F)F)CC1
GI50 (HCT-116): 640 nM | TGI (HCT-116): 1300 nM | GI50 (HT-29): 670 nM | TGI (HT-29): 1320 nM | GI50 (SF-539): 530 nM | TGI (SF-539): 1020 nM | GI50 (SNB-75): 980 nM | TGI (SNB-75): 5140 nM | GI50 (SK-MEL-28): 750 nM | TGI (SK-MEL-28): 1850 nM | GI50 (786-0): 500 nM | TGI (786-0): 1030 nM | GI50 (CAKI-1): 800 nM | TGI (CAKI-1): 2080 nM | GI50 (PC-3): 760 nM | TGI (PC-3): 2100 nM | GI50 (DU-145): 750 nM | TGI (DU-145): 1580 nM | GI50 (Hs-578T): 880 nM | TGI (Hs-578T): 3450 nM | IC50 at 48 h [1]: 16200 nM | IC50 at 48 h [2]: 8400 nM | Ratio IC50 [3]: 15.43 | selectivity ratio [4]: 6.4 | Ratio IC50 [5]: 18.84 | selectivity ratio [6]: 18.8 | Ratio IC50 [7]: 8.71 | Ratio IC50 [8]: 8.62 | Ratio IC50 [9]: 8.62 | Ratio IC50 [10]: 8.62 | Ratio IC50 [11]: 10.52 | selectivity ratio [12]: 21.6 | Ratio IC50 [13]: 21.6 | Ratio IC50 [14]: 10.06 | selectivity ratio [15]: 10.1 | Ratio IC50 [16]: 8 | Ratio IC50 [17]: 8 | Ratio IC50 [18]: 3.32 | Ratio IC50 [19]: 9.77 | Ratio IC50 [20]: 9.77 | Ratio IC50 [21]: 4.52 | Ratio IC50 [22]: 4.52 | Ratio IC50 [23]: 4.52 | Ratio IC50 [24]: 4.47 | Ratio IC50 [25]: 4.47 | Ratio IC50 [26]: 3.05 | Ratio IC50 [27]: 5.45 | Ratio IC50 [28]: 5.45 | Ratio IC50 [29]: 5.45 | Ratio IC50 [30]: 11.2 | Ratio IC50 [31]: 5.22 | Ratio IC50 [32]: 5.22 | Ratio IC50 [33]: 5.22 | fold change (FC) (Hep 3B2 [34]): 27 | Activity (Hep 3B2 [35]): inactive | Activity (Hep 3B2 [36]): inactive | pIC50 [37]: 6.00 | selectivity ratio (in vitro): 6.4
